US10988440B2, “FTO inhibitors” (National Institute of Biological Sciences, Beijing, priority 2015, dated 2021)
Where two headings read alike, the source gives them in different places.

How the values were obtained:
[1] = Rat liver microsome stability assay; format: in vitro ADME; details: liver microsomes, pH 7.4, rat liver microsome 1 mg/ml, test compound 2 μM, NADPH 1 mM, 37° C.
COMT enzyme [2] = experiment: COMT inhibition assay (reaction kinetic model, esculetin fluorescence); format: biochemical; details: normalized COMT/FTO value: (COMTcompound/FTOcompound)/(COMTentacapone/FTOentacapone)
COMT enzyme [3] = target: T1, COMT enzyme (Homo sapiens, UniProt P21964); experiment: as above; format: biochemical
T1 construct: COMT (μM); other: at 200 nM; other: at 50 nM; The reaction system contains 1U COMT enzyme, test article, 4 μM Esculetin, 0.6 mM AdoMet, 50 mM K3PO4, and 10 mM MgCl2
T1 sequence (P21964 1-271): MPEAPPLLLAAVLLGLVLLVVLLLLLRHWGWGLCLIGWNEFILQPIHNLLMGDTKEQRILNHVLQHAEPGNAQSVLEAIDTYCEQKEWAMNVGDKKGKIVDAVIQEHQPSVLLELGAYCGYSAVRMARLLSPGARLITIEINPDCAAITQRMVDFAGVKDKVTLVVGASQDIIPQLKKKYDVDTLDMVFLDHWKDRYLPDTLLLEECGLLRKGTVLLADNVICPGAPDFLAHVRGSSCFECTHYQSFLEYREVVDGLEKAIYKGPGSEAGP

FTO = FTO (Homo sapiens, UniProt Q9C0B1); experiment: demethylation reaction catalyzed by FTO (enzymatic inhibition, HPLC-MS/MS of N6-mA and A); format: biochemical
Sequence of FTO (Q9C0B1 whole entry): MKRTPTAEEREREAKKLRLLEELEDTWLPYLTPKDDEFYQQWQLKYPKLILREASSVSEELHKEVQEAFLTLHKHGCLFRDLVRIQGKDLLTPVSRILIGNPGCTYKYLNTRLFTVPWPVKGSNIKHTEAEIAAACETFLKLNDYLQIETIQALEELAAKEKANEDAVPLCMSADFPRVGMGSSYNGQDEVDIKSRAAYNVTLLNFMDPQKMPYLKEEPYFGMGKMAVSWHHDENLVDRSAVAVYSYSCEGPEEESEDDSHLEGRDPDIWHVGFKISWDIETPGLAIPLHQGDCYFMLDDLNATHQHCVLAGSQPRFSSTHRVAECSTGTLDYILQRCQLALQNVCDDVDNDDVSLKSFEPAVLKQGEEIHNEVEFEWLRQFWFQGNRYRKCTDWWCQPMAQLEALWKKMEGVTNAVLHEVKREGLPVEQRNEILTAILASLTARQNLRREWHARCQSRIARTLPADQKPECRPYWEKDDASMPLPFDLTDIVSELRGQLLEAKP

[4] = read-out: Rat Liver Microsome CLint (μL/min/mg protein)
[5] = read-out: Rat Liver Microsome T½
[6] = exemplary IC50 data of representative compounds, read-out: Enzymatic inhibition (IC50)
[7] = selectivity table, read-out: FTO

| SMILES | microsomal CLint at 1 h, 2 µM [1, 4] [µL/min/mg] | half-life at 1 h, 2 µM [1, 5] [h] | Selectivity Index* (COMT enzyme [2]) | IC50 (COMT enzyme [3]) [nM] | IC50 (FTO; [6]) [nM] | IC50 (FTO; [7]) [nM] | microsomal CLint at 2 μM [1, 4] [µL/min/mg] | half-life at 2 μM [1, 5] [h] |
| --- | --- | --- | --- | --- | --- | --- | --- | --- |
| CCN(CC)C(=O)C(C#N)=C(NC)c1cc(O)c(O)c([N+](=O)[O-])c1 [Compound 347M, 2-cyano-3-(3,4-dihydroxy-5-nitrophenyl)-N,N-diethyl-3-(methylamino)acrylamide] | – | – | 8.10 | 162 | ~1000 | 1000 | 12.2 | 0.947 |
| N#C/C(C(=O)Nc1nccs1)=C(/O)c1cc(O)c(O)c([N+](=O)[O-])c1 [Compound 374, 2-cyano-3-(3,4-dihydroxy-5-nitrophenyl)-3-oxo-N-(thiazol-2-yl)propanamide] | 0.6 | 19.2 | 6.50 | 65 | < 1000 | 500 | – | – |

The remaining lines, values ahead:

| microsomal CLint at 1 h, 2 µM [1, 4] [µL/min/mg] | half-life at 1 h, 2 µM [1, 5] [h] | Selectivity Index* (COMT enzyme [2]) | IC50 (COMT enzyme [3]) [nM] | IC50 (FTO; [6]) [nM] | IC50 (FTO; [7]) [nM] | microsomal CLint at 2 μM [1, 4] [µL/min/mg] | half-life at 2 μM [1, 5] [h] | SMILES |
| --- | --- | --- | --- | --- | --- | --- | --- | --- |
| 20.9 | 0.553 | 21.60 | 108 | < 1000 | 250 | – | – | N#C/C(=C\c1cc(O)c(O)c([N+](=O)[O-])c1)c1cnccn1 [Compound 396] |
| 2.9 | 3.98 | 10.50 | 105 | < 1000 | 500 | – | – | N#C/C(=C(/O)c1cc(O)c(O)c([N+](=O)[O-])c1)c1cnccn1 [Compound 523, 3-(3,4-dihydroxy-5-nitrophenyl)-3-hydroxy-2-(pyrazin-2-yl)acrylonitrile] |
| 1.6 | 7.22 | 4.00 | 24 | < 1000 | 300 | – | – | N#C/C(=C\c1cc(O)c(O)c([N+](=O)[O-])c1)c1cnc(C(=O)O)cn1 [Compound 655, (Z)-5-(1-cyano-2-(3,4-dihydroxy-5-nitrophenyl)vinyl)pyrazine-2-carboxylic Acid] |
